Reference: the NIST ThermoML archive (doi:10.1016/j.tca.2015.03.003)
± gives the expanded uncertainty stated by the source.

Assay: molar heat capacity at constant pressure; xn = mol fraction of the nth substance listed
Conditions: 100 kPa, Crystal of unknown type, Small sample (50 mg) DSC

[Cl-].[K+] [potassium chloride] + [Cl-].[Na+]
molar heat capacity at constant pressure [J/K/mol]
Conditions | 298.15 K | 300 K | 350 K | 400 K | 450 K | 470 K | 500 K | 550 K | 600 K
x1 = 0.1 | 48.78 ± 3 | 48.81 ± 3 | 49.61 ± 3.1 | 50.41 ± 3.1 | 51.21 ± 3.2 | 51.53 ± 3.2 | 52.01 ± 3.2 | 52.81 ± 3.3 | 53.61 ± 3.3
x1 = 0.2 | 51.33 ± 3.2 | 51.36 ± 3.2 | 52.11 ± 3.2 | 52.86 ± 3.3 | 53.61 ± 3.3 | 53.91 ± 3.3 | 54.36 ± 3.4 | 55.11 ± 3.4 | 55.86 ± 3.4
x1 = 0.3 | 49.46 ± 3 | 49.49 ± 3 | 50.24 ± 3.1 | 50.99 ± 3.1 | 51.74 ± 3.2 | 52.04 ± 3.2 | 52.49 ± 3.2 | 53.24 ± 3.3 | 53.99 ± 3.3
x1 = 0.4 | 50.77 ± 3.1 | 50.8 ± 3.1 | 51.4 ± 3.2 | 52 ± 3.2 | 52.6 ± 3.2 | 52.84 ± 3.3 | 53.2 ± 3.3 | 53.8 ± 3.3 | 54.4 ± 3.4
x1 = 0.5 | 51.13 ± 3.2 | 51.16 ± 3.2 | 51.77 ± 3.2 | 52.39 ± 3.2 | 53.01 ± 3.3 | 53.25 ± 3.3 | 53.63 ± 3.3 | 54.24 ± 3.3 | 54.86 ± 3.4
x1 = 0.6 | 48.93 ± 3 | 48.96 ± 3 | 49.81 ± 3.1 | 50.66 ± 3.1 | 51.51 ± 3.2 | 51.85 ± 3.2 | 52.36 ± 3.2 | 53.21 ± 3.3 | 54.06 ± 3.3
x1 = 0.7 | 50.73 ± 3.1 | 50.76 ± 3.1 | 51.51 ± 3.2 | 52.26 ± 3.2 | 53.01 ± 3.3 | 53.31 ± 3.3 | 53.76 ± 3.3 | 54.51 ± 3.4 | 55.26 ± 3.4
x1 = 0.75 | 50.05 ± 3.1 | 50.07 ± 3.1 | 50.42 ± 3.1 | 50.77 ± 3.1 | 51.12 ± 3.1 | 51.26 ± 3.2 | 51.47 ± 3.2 | 51.82 ± 3.2 | –
x1 = 0.8 | 50.46 ± 3.1 | 50.47 ± 3.1 | 50.87 ± 3.1 | 51.27 ± 3.2 | 51.67 ± 3.2 | 51.83 ± 3.2 | 52.07 ± 3.2 | 52.47 ± 3.2 | –
